Measured values published in ChEMBL document CHEMBL1201862, “PubChem BioAssay data set” (2004).
Activity calls are given as the source filed them. Cut-off read from the data, not from the text of the source, for most assays here: actives have a measured EC50 and inactives only a lower limit.

How the values were obtained:
Cytochrome P450 3A4 = Cytochrome P450 3A4 (Homo sapiens, UniProt P08684);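 note: CYP3A4 tested as one member of a cytochrome P450 panel screen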
[1] = cytotoxicity toward NIH3T3 fibroblasts, dose response, counter-screen, cell-based, ATP luminescence, mouse fibroblasts (AID 2010); format: functional;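 note: cells exposed to compound for about 90 hours before reading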
[2] = inhibitors of intracellular T. cruzi replication, confirmation, NIH3T3 host cells, beta-gal luminescence (AID 2044); format: functional, cell-based;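 note: intracellular parasites grown in NIH/3T3 mouse fibroblasts as host cells; luminescent beta-galactosidase reporter signal from transgenic T. cruzi replicating inside host cells; inhibitors lower the luminescence signal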

Chain of Cytochrome P450 3A4 (P08684 whole entry): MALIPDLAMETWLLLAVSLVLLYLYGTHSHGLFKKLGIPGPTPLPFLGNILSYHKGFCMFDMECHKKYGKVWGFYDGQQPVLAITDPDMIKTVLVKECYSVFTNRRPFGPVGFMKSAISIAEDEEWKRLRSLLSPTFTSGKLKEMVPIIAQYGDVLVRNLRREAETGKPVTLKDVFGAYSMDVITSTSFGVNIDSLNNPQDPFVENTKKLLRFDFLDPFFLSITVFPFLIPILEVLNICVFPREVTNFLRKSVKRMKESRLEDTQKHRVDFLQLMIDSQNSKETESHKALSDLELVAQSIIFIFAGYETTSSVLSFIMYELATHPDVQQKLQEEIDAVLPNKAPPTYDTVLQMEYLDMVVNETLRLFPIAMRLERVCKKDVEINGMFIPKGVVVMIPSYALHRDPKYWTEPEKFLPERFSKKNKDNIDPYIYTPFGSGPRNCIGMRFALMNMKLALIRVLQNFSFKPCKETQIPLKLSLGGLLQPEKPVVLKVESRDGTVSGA

| AC50 (Cytochrome P450 3A4) | SMILES | EC50 [1] | EC50 [2] |
| --- | --- | --- | --- |
| 15.8 µM (inconclusive) | Cc1nc2cnc(N(C)C)nc2n(C)c1=O |  |  |
|  | CN1CCN(CC(O)c2ccccc2)CC1 (configuration not stated) | 31.2 µM (active) | 0.934 µM (active) |
| 35.5 µM (inconclusive) | Cc1cc(C)n(-c2cc(N3CCN(C(=O)c4ccc(C(C)(C)C)cc4)CC3)ccc2[N+](=O)[O-])n1 |  |  |
| 11.2 µM (inconclusive) | CCOC(=O)c1cc(CC)sc1NC(=O)C(c1ccccc1)c1ccccc1 |  |  |
| 6.31 µM (inconclusive) | CO[C@@H]1COC(=O)C/C=C\[C@H](C)COC(=O)[C@H](Cc2ccccc2)NC(=O)C/C=C\[C@H]1C |  |  |
|  | CCOC(=O)c1c(NC(=O)Cn2cnc([N+](=O)[O-])n2)sc(C)c1C | > 30 µM (not active) | 0.191 µM (active) |
|  | CC(=O)c1sc2nc(-c3ccccc3)cc(C)c2c1N | > 60 µM (not active) | 0.638 µM (active) |
| 20 µM (inconclusive) | COCCn1c(=O)c(-c2ccccc2)nc2cnc(Oc3cccc(Cl)c3)nc21 |  |  |
|  | CN1CCC(NC(=O)Nc2ccc(Br)cc2)CC1 | > 60 µM (not active) | 0.188 µM (active) |
| 17.8 µM (inconclusive) | CS(=O)(=O)N(CC(=O)Nc1cccc(F)c1)c1cccc([N+](=O)[O-])c1 |  |  |
|  | CN1Cc2cccc3c2C(Cc2ccccc2S3)C1 (configuration not stated) | > 30 µM (not active) | 0.451 µM (active) |
|  | CSc1cccc(CN2CCCC(CO)(Cc3cccc(Cl)c3)C2)c1 (configuration not stated) | > 30 µM (not active) | 0.514 µM (active) |
| 12.6 µM (inconclusive) | O=C(Nc1ccc(OC(=O)c2cccnc2)cc1)c1cccnc1 |  |  |
|  | CCOc1cc(CNCCc2ccc(S(N)(=O)=O)cc2)cc(Cl)c1OCc1ccccc1 | > 60 µM (not active) | 0.373 µM (active) |
| 3.98 µM (inconclusive) | CC1CCN(c2cc(N3CCC(C)CC3)c([N+](=O)[O-])cc2/C=C(\C#N)c2nn(-c3ccccc3)c(N)c2C#N)CC1 |  |  |
| 0.398 µM (inconclusive) | C[C@@H]1C[C@H]2[C@H]3C[C@@H](F)C4=CC(=O)C=C[C@]4(C)[C@@]3(Cl)[C@@H](O)C[C@@]2(C)[C@@H]1C(=O)COC(=O)C(C)(C)C |  |  |
|  | Cc1ccc(CN2CCN(/N=C/c3ccc(Cl)c([N+](=O)[O-])c3)CC2)cc1 | > 60 µM (not active) | 1.31 µM (active) |
|  | Cc1ccc(C(C)C)cc1OCC(=O)Nc1ccc(N2CCCCC2)cc1 | > 16 µM (not active) | 2.03 µM (active) |
| 15.8 µM (inconclusive) | c1nc(NCCN2CCOCC2)c2cc(-c3ccoc3)ccc2n1 |  |  |
|  | COc1cc(-c2nc(-c3cc([N+](=O)[O-])ccc3C)c(-c3ccccc3)[nH]2)cc(OC)c1OC | > 60 µM (not active) | 0.561 µM (active) |
| 15.8 µM (inconclusive) | O=c1c2ccccc2nc(SCc2ccccc2Cl)n1Cc1ccccc1 |  |  |
| 6.31 µM (inconclusive) | COc1ccc2nc(SCC(=O)Nc3ccc4c(c3)OCCO4)[nH]c2c1 |  |  |
|  | COc1cccc(NC(=S)N(Cc2ccc(C)cc2)Cc2ccccn2)c1 | > 60 µM (not active) | 0.764 µM (active) |
| 10 µM (inconclusive) | C=CCCCCCCCCC(=O)Nc1cnc(O)nc1O |  |  |
| 3.98 µM (inconclusive) | O=C(N/N=C1/C[C@@H](O)[C@@H](O)[C@@H]2[C@H]3C(=O)N(c4ccc(F)cc4F)C(=O)[C@@H]3CC[C@@H]12)OCc1ccccc1 |  |  |

| SMILES | AC50 (Cytochrome P450 3A4) | EC50 [1] | EC50 [2] |
| --- | --- | --- | --- |
| Cc1nnc2ccc(-c3cccc(C(F)(F)F)c3)nn12 [CI-218872] | 31.6 µM (inconclusive) |  |  |
